Experimental data reported in patent publication US4952607A, “Copper complex for treating cancer” (priority 1986, dated 1990).
Values joined by “and” are separate entries in the source; they are usually repeats but may differ in a detail not shown here. Identical values can stand only once. “Also recorded” adds a separate entry of the source. Like-named read-outs stand apart in the source and are kept apart here.

How the values were obtained:
[1] = Acute toxicity LD50, subcutaneous, mice
[2] = Acute toxicity LD50, subcutaneous, rats
[3] = Body weight of tumor bearing CBA mice (Ehrlich carcinoma); format: in vivo
[4] = test system: neuroblastoma cell clone NBP2; format: cell-based, mouse; details: 3 days; for % differentiation: control 8.0 ± 3.7; for % differentiation / Cell number ×10^5: mean ± S.D.; for Cell number ×10^5: control 17.1 ± 1.9
Experimental: The neuroblastoma cell clone NBP2 provided by Dr. K. N. Prasad (University of Colorado), is maintained according to the procedure of Prasad and Hsie, Prasad, K. N. and Hsie, A. N., Nature New Biol. 233:141 (1971), hereby incorporated by reference. Cells are grown as a monolayer in 75 cm^2 Falcon plastic tissue culture flasks containing F-12 medium supplemented with 10% gamma globulin-free new born calf serum, penicillin (100 U/ml) and streptomycin (100 μg/ml). Cultures are maintained in a humidified atmosphere of 5% CO2 in a water jacketed incubator at 37° C. […] Only exponentially growing cells are used in the experiment. […] Medium, serum, antibiotics, and pancreatin are purchased from Grand Island Biological Company. […] Fifty-thousand cells were seeded in each […] plastic petri dish containing 5 ml of the growth medium. Cells are treated with CuDIPS 24 hours after seeding. CuDIPS is dissolved in ethanol to give a final concentration of 10, 25, or 50 μg/ml of copper compound in the medium. The concentration of ethanol in the medium is kept constant at 1% in all the treated and control dishes. Culture dishes containing 1% ethanol serve as controls. One day after the start of treatments and daily afterwards, fresh drug and medium are provided in each dish. To avoid possible degradation, CuDIPS is dissolved in ethanol immediately before use. The experiment is done in triplicate. Three days after the initial treatments the number of cells and percent differentiation of cells are scored in each dish. Four hundred cells per culture dish from at least three different regions are examined with a Leitz Divert phase contrast microscope. Cells with one or more processes at least twice as long as the soma diameter (processes usually longer than 50 microns) are scored as differentiated. To count the number of cells, cells are harvested with Pancreatin and the number of cells in each dish is determined by counting cells in a hemocytometer.

[5] = O2^- scavenging / SOD activity, DMSO-KO2 nitro blue tetrazolium method; format: biochemical; details: mean
Experimental: The SOD activity of Orgotein and of tumor homogenates is assayed by the method of Beauchamp and Fridovich. Reaction mixtures contain 0.05M potassium phosphate buffer (pH 7.8) with 10^-3 M diethylenetriaminepentaacetic acid, 10^-4 M of xanthine, 5.6×10^-5 M of nitro blue tetrazolium, 10^-3 units of xanthine oxidase and 1 unit of catalase. Addition of 5×10^-3 M NaCN to this mixture inhibits CuZnSOD activity and allows the measurement of the activity of the cyanid insensitive MnSOD alone. The rate of blue formazan formation is measured by following the change of absorbance at 560 nm with a Cary Model 15 spectrophotometer. The sensitivity of the assay was such that 1 unit equaled 14±1 ng of pure erythrocyte SOD. The amount of protein in each sample is assayed using a conventional method. […] After bones and muscles are removed, the tumor tissue is rinsed and minced in 0.05 M potassium phosphate buffer (pH 7.8) and homogenized in a motor-driven Teflon pestle homogenizer. […] CuDIPS is dissolved in 10% Tween 80-saline. This alternate method is chosen due to the length of previous procedure and lipid insolubility of some of the reactants of the previous assay. Free O2^- is released when DMSO-KO2 is added to an aqueous solution. […] The formation of blue formazan is determined by recording the final absorbance of the assay mixture at 560 nm with a Cary Model 15 spectrophotometer. […]

[6] = rats, subcutaneous; reported; cited from earlier work
[7] = SOD activity, xanthine-xanthine oxidase nitro blue tetrazolium method (Beauchamp and Fridovich); format: biochemical
Experimental: Orgotein, a generic name for CuZnSOD derived from bovine liver, is obtained from Diagnostic Data Incorporated, Mountain View, California. It is 98% pure CuZnSOD isolated from bovine liver and had 3,300 units of pure erythrocyte SOD activity/mg protein when assayed by the method of Beauchamp, C. and Fridovich, I., Superoxide Dismutase: Improved Assays and an Assay Applicable to Acrylamide Gel., Anal. Biochem. 44:276-287 (1971), hereby incorporated by reference. Orgotein was dissolved in USP grade nonpyrogenic sterile saline.
The SOD activity of Orgotein and of tumor homogenates is assayed by the method of Beauchamp and Fridovich. Reaction mixtures contain 0.05M potassium phosphate buffer (pH 7.8) with 10^-3 M diethylenetriaminepentaacetic acid, 10^-4 M of xanthine, 5.6×10^-5 M of nitro blue tetrazolium, 10^-3 units of xanthine oxidase and 1 unit of catalase. […] The rate of blue formazan formation is measured by following the change of absorbance at 560 nm with a Cary Model 15 spectrophotometer. […] O2^- scavenging ability of CuDIPS is determined by a similar assay method; the only difference is that dimethyl sulfoxide (DMSO) solvated potassium superoxide (KO2) is used to generate O2^- instead of xanthine and xanthine oxidase. […] The formation of blue formazan is determined by recording the final absorbance of the assay mixture at 560 nm with a Cary Model 15 spectrophotometer. […]

[8] = test system: Sarcoma 180 cells; test: Tumor growth and survival of CF1 mice implanted with Sarcoma 180 cells; format: in vivo
Experimental: Autopsies are performed on all dead animals.

[9] = test system: Sarcoma 180 cells; test: Viability of Sarcoma 180 cells incubated in Orgotein; format: cell-based, mice; details: 2.5×10^7 cells/ml; 0.8 mg/ml, one hour
Experimental: Table II and Chart II show the survival times of these tumor bearing mice; there is a 23% increase in mean survival time in the Orgotein treated group (p less than 0.1). Viability of the Sarcoma 180 cells (2.5×10^7 cells/ml) is unchanged when they are incubated in 0.8 mg/ml Orgotein for one hour, showing that the effect of Orgotein is probably not due to cytotoxicity.

[10] = 50 μg/ml, listed as Cu(II)(3,5-diisopropylsalicylate)2

In the case of `CC(=O)Oc1ccccc1C(=O)[O-].CC(=O)Oc1ccccc1C(=O)[O-].CC(=O)Oc1ccccc1C(=O)[O-].CC(=O)Oc1ccccc1C(=O)[O-].[Cu+2].[Cu+2]` [Cu(II)2 (aspirinate)4], the LD50 [1] is reported as “greater than 320 mg/kg” and the LD50 [2] is reported as 760 mg/kg.

In the case of `CC(C)c1cc(C(=O)[O-])c(O)c(C(C)C)c1.CC(C)c1cc(C(=O)[O-])c(O)c(C(C)C)c1.[Cu+2]` [CuDIPS, Cu(II) (3,5-diisopropylsalicylate)2], the body weight change ([3]; mouse, in vivo) is reported as “no weight loss was observed”, the “% differentiation” value ([4]; 10 μg/ml, listed as Cu(II)(3,5-diisopropylsalicylate)2) is reported as 7.4 ± 2.6% and the “Cell number ×10^5” value ([4]; 10 μg/ml, p less than 0.05) is reported as “a small reduction in the number of cells per culture dish”. The “Cell number ×10^5” value ([4]; 10 μg/ml, p less than 0.05, listed as Cu(II)(3,5-diisopropylsalicylate)2) was 12.7 ± 1.4 ×10^5, the “cell population relative to control” value ([4]; 25 μg/ml) was “less than half of the cell population” and the “% differentiation” value ([4]; 25 μg/ml) was 22.4±2.6%. For the same compound, the “% differentiation” value ([4]; 25 μg/ml, listed as Cu(II)(3,5-diisopropylsalicylate)2) was 22.4 ± 2.6%, the “Cell number ×10^5” value ([4]; 25 μg/ml, per culture dish) was 7.1±1.2 ×10^5 and the “Cell number ×10^5” value ([4]; 25 μg/ml, per culture dish, listed as Cu(II)(3,5-diisopropylsalicylate)2) was 7.1 ± 1.2 ×10^5. The “morphology of treated cells” value ([4]; 50 μg/ml) was “morphologically resembles mature neural cells”, the “% differentiation” value ([4]; 50 μg/ml) was 74.2±4.9% and the “% differentiation” value [4, 10] was 74.2 ± 4.9%. For the same compound, the “Cell number ×10^5” value ([4]; 50 μg/ml) was “a remarkable reduction in cell population”, the “Cell number ×10^5” value [4, 10] was 1.4 ± 0.6 ×10^5 and the SOD activity [5] was 17,400±1,800 units of SOD activity/mg of the compound. For the same compound, the LD50 [6] was 240 mg/kg and 240 ± 33 mg/kg.

With “Orgotein: generic name for CuZnSOD derived from bovine liver” the “SOD activity of Orgotein as obtained” value ([7]; method of Beauchamp and Fridovich) was 3,300 units of pure erythrocyte SOD activity/mg protein, the SOD activity ([7]; xanthine-xanthine oxidase method) was 49,500±300 units of SOD activity/mg protein and the “tumor growth curve vs control after 27 days” value ([8]; 1.2 mg at 1 hour after implantation, after 27 days) was “the growth curves are the same”. For the same compound, the “reduction in tumor size” value ([8]; 1.2 mg at 1 hour after implantation, p less than 0.05 between 11 and 27 days) was “reduction of tumor size; also recorded: a reduction in tumor size is observed”, the “Maximum Survival Time” value ([8]; 1.2 mg i.m. at 1 hour) was 90 days and the “Median Survival Time” value ([8]; 1.2 mg i.m. at 1 hour) was 53 days. For the same compound, the “Mean Survival Time” value ([8]; 1.2 mg i.m. at 1 hour, ± standard error, p less than 0.1) was 53 ± 5 days, the “increase in mean survival time” value ([8]; Orgotein treated group, p less than 0.1) was 23% and the “effect on tumor growth and survival” value ([8]; local injection, Sarcoma 180) was “a slight effect on the tumor growth and survival”. For the same compound, the “tumor growth / survival, delayed treatment” value ([8]; same dose given 5 or 10 days after transplantation) was “no significant decrease in tumor growth or increase in survival is observed” and the “Viability of the Sarcoma 180 cells” value [9] was “unchanged”.

With `CC(C)c1cc(C(=O)O)c(O)c(C(C)C)c1` [DIPS, diisopropylsalicylic acid] the body weight change ([3]; DIPS i.m., single doses) was “loss of body weight”.

In the case of `O=S(=O)([O-])[O-].[Cu+2]` [CuSO4, copper sulfate], the body weight change ([3]; CuSO4 0.5 mg in 0.1 ml, 5 days) is reported as “continuous loss of weight”.
